# US12637411B2, “Structurally modified opioids for prevention and treatment of diseases and conditions” (University of Padova, priority 2019, dated 2026)
# Tests used:
# [1] = test system: NMDAR; conditions: cited from earlier work; for trapping: Zanos et al. 2018
# [2] = Phase 1 Single Ascending Dose (SAD) study
# Description: The Single Ascending Dose (SAD) study included a parallel group, double-blind, placebo-controlled design. The objectives of the study were to establish PK, PD, and safety of single dose administration. Administration involved cohorts of 5, 20, 60, 100, 150, 200 mg and N=42.
# [3] = Phase 1 Multiple Ascending Dose (MAD) study; assay type: in vivo, healthy opioid-naïve volunteers
# Description: The objective of the Multiple Ascending Dose (MAD) study was to establish PK, PD, and safety of once daily, 10-day administration. Administration involved cohorts of 25, 50, 75 mg and N=24.
# [4] = test system: ARPE-19 cells; experiment: Relative gene expression (NMDAR1, p65, TNF-α, IL-6) in ARPE-19 cells; assay type: cell-based; conditions: pretreatment before 1 mM L-glutamate
# Description: Once the effect of NMDAR antagonists on nuclear translocation of p65 was verified, in order to confirm their anti-inflammatory effect, the present inventors investigated the changes of gene expression levels of the pro-inflammatory cytokines IL-6 (interleukin-6) and TNF-α, the transcription factor p65 and the NMDA receptor.
# The first gene for which the level of gene expression was assessed is the 1A subunit of NMDAR receptor dimer (known as NMDAR1).
# [5] = test system: brain derived neurotrophic factor (BDNF); conditions: 25 mg, 4 hours after administration, vs pre-treatment
# [6] = test system: ARPE-19 cells; experiment: ROS production in ARPE-19 cells; conditions: 1 mM L-Glu + 30 μM antagonist; statistical significance not reached
# Description: This study was conducted also on the retinal cell line ARPE-19 in order to verify how NMDAR activation and blockade influence ROS production.
# [7] = Female Urine Sniffing Test (FUST); conditions: 24 hr after administration, vs. vehicle
# [8] = Novelty Suppressed Feeding Test (NSFT); conditions: 72 hr after administration, vs. vehicle
# [9] = test system: ARPE-19 cells; experiment: ARPE-19 cell viability after L-glutamate; conditions: pretreatment before 1 mM L-glutamate; dextromethadone 30 microMolar
# [10] = Chronic Unpredictable Stress (CUS) protocol with SPT, FUST, NSFT; conditions: single dose
# Description: The present inventors also performed behavioral analysis of the effect of both d-methadone and ketamine on rats exposed to a Chronic Unpredictable Stress (CUS) protocol.
# [11] = test system: GluR1 and PSD95; experiment: mTORC1 signaling proteins and synaptic proteins in PFC and hippocampus; conditions: rat models of depression
# Description: Levels of phospho proteins were normalized to total proteins and levels of synaptic proteins were normalized the GAPDH. Results are the mean±S.E.M., n=10-12/group.
# [12] = Forced Swim Test (FST); assay type: in vivo; conditions: drug treated vs. vehicle treated animals; d-methadone 10, 20, 40 mg/kg
# [13] = compared to dextromethadone and deuterated dextromethadone (D9, D10, D16), PCT/US2018/016159; cited from earlier work
SMILES,IL-6 gene expression [4],NMDAR1 gene expression [4],TNF-α gene expression [4],ROS production [6],effect in the Female Urine Sniffing Test [7],effect in the Novelty Suppressed Feeding Test [8],effect on L-glutamate-induced cell viability decrease [9],"behavioral effects of CUS (SPT, FUST, NSFT) [10]",trapping [1],other results
"CC12CC3CC(C)(C1)CC(N)(C3)C2 [Memantine, memantine]",,,,,,,,,,off rate ([1]; NMDA receptor block): ~5 s; on rate ([1]; NMDA receptor block): 1 s
CCC(=O)C(C[C@H](C)N(C)C)(c1ccccc1)c1ccccc1 [dextromethadone],tendency to decrease,up to 9 times when compared to the expression level of vehicle-treated cells,restored to normal levels,tendency to decrease,significant improvements,significant improvements,protective effect on cell viability,prevented the behavioral effects of CUS,,"Maximum tolerated dose (MTD) ([2]; single dose): 150 mg; opioid effects ([2]; up to 150 mg): no clinically significant opioid effects; dissociative or psychotomimetic adverse events ([3]; at the tested doses (SAD and MAD)): did not cause dissociative or psychotomimetic adverse events; tolerability ([3]; daily doses up to 75 mg for 10 days (single doses up to 150 mg)): well tolerated; PK: Cmax, AUCtau Day 1; Cmax, AUCtau, Css Day 10 ([3]; once daily 25, 50, 75 mg, 10 days): linear PK with dose proportionality; p65 gene expression [4]: decrease in gene expression of p65; subjects with an increase in BDNF levels post treatment [5]: 6 of 6; levels of GluR1 and PSD95 [11]: increase"
c1ccc(C2(N3CCCCC3)CCCCC2)cc1 [PCP],,,,,,,,,98%,
"CNC1(c2ccccc2Cl)CCCCC1=O (stereo not shown) [Ketamine, ketamine]",,,,,significant improvements,significant improvements,,prevented the behavioral effects of CUS,86%,"effect in the Forced Swim Test (immobility, climbing, swimming counts) [12]: significant improvements"
"COc1ccc2c(c1)[C@]13CCCC[C@@H]1[C@H](C2)N(C)CC3 [Dextromethorphan, dextromethorphan]",,,,,,,,,,half-life [13]: significantly shorter half-life
C[C@]12N[C@H](Cc3ccccc31)c1ccccc12 [MK-801],tendency to decrease,only slightly evident,restored to normal levels,tendency to decrease,,,protective effect on cell viability,,100%,
